Assay results from PMC9102502, “The Influence of Selected Antipsychotic Drugs on Biochemical Aspects of Alzheimer’s Disease” (International Journal of Molecular Sciences, 2022).
“And” between values parts separate entries of the source, which are not always exact repeats. Equal entries are not always repeated. Where two headings read alike, the source gives them in different places.

Key:
[1] = biological target: T1, human erythrocyte acetylcholinesterase (Homo sapiens, UniProt P22303); assay: AChE inhibition, modified Ellman's method; type: biochemical
T1 construct: solution of hemolyzed erythrocytes diluted 400-fold; from tissue; host or cells: hemolyzed erythrocytes from blood of healthy human donors
T1 sequence (P22303 32-617 isoform P22303-2 limits assumed): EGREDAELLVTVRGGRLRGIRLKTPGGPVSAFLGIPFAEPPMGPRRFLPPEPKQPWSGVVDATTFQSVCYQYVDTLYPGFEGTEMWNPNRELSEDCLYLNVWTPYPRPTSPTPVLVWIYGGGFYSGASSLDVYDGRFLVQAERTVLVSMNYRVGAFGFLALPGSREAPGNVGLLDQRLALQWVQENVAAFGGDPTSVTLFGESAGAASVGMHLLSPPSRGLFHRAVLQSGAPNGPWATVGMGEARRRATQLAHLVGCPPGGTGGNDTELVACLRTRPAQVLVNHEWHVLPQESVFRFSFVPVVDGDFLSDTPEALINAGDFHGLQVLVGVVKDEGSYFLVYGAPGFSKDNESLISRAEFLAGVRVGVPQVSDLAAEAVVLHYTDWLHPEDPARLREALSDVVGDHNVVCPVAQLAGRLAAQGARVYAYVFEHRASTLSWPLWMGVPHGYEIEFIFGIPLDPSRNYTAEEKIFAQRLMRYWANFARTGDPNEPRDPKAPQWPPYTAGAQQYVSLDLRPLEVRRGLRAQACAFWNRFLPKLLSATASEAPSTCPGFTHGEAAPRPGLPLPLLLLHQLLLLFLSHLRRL

[2] = biological target: T2, human plasma butyrylcholinesterase (Homo sapiens, UniProt P06276); assay: BuChE inhibition, modified Ellman's method; type: biochemical; details: experimental data; mean ± SD, n = 6–9; read-out: IC50 BuChE
T2 construct: The solution of plasma 200-fold diluted with 0.9% NaCl; from tissue; host or cells: citrated plasma from blood of healthy human donors
T2 sequence (P06276 29-602): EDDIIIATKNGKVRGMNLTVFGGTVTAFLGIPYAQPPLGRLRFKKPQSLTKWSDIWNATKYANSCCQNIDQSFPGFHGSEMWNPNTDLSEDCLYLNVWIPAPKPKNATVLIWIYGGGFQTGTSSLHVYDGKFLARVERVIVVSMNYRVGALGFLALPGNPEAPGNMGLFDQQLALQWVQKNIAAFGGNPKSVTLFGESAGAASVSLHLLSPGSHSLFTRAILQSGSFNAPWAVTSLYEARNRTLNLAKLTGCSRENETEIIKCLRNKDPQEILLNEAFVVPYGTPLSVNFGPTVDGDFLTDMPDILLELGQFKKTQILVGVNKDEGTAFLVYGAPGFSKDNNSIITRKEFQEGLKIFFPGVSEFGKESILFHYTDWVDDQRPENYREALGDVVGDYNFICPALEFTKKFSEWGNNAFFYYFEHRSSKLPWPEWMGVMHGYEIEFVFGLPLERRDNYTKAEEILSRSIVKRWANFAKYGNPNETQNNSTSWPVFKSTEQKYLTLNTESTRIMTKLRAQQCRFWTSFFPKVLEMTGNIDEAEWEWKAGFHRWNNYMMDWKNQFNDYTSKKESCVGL

[3] = system: human erythrocytes; details: 80 μg/L, AAPH 50 mmol/L
Description: The blood samples were centrifuged (3000 rpm, 10 min, 20 °C, Micro 22 R centrifuge, Hettich Zentrifugen, Tuttlingen, Germany) to separate erythrocytes from the plasma and washed three times with 0.9% saline (NaCl). […] The erythrocytes were suspended in 0.9% saline. As control of basal hemolysis, erythrocytes were incubated with 0.9% NaCl. For total hemolysis control erythrocytes were incubated with 2.0% v/v Triton X-100. Incubation with Triton X-100 and K4[Fe(CN)6] (at concentration 50 g/L) was performed to control methemoglobin (MetHb) formation. Moreover, an antioxidant control containing ascorbic acid (AA) at a concentration of 10 µg/mL was prepared, while AAPH at a concentration of 50 mmol/L was an oxidizing agent. Antipsychotics at concentrations equaling their maximum therapeutic plasma concentrations (TPCmax), as well as 5-fold higher (5 × TPCmax) and 5-fold lower than TPCmax (1/5 × TPCmax), and the oxidizing agent AAPH at a concentration of 50 mmol/L, were added to 2% RBC suspension. Controls and tested samples were incubated at 37 °C. […] The percentage of hemolysis was calculated with the following formula:Hemolysis (%) = (Asample/Atotal hemolysis) × 100%(1) where Asample—absorbance of the test sample; Atotal hemolysis—the absorbance of the reference sample with 2% Triton X solution, corresponding to complete hemolysis.

[4] = system: human erythrocytes; assay: Methemoglobin formation in RBC with AAPH; type: cell-based; details: 5 h, AAPH control 61.9%
Description: The blood samples were centrifuged (3000 rpm, 10 min, 20 °C, Micro 22 R centrifuge, Hettich Zentrifugen, Tuttlingen, Germany) to separate erythrocytes from the plasma and washed three times with 0.9% saline (NaCl). […] The erythrocytes were suspended in 0.9% saline. As control of basal hemolysis, erythrocytes were incubated with 0.9% NaCl. For total hemolysis control erythrocytes were incubated with 2.0% v/v Triton X-100. Incubation with Triton X-100 and K4[Fe(CN)6] (at concentration 50 g/L) was performed to control methemoglobin (MetHb) formation. Moreover, an antioxidant control containing ascorbic acid (AA) at a concentration of 10 µg/mL was prepared, while AAPH at a concentration of 50 mmol/L was an oxidizing agent. Antipsychotics at concentrations equaling their maximum therapeutic plasma concentrations (TPCmax), as well as 5-fold higher (5 × TPCmax) and 5-fold lower than TPCmax (1/5 × TPCmax), and the oxidizing agent AAPH at a concentration of 50 mmol/L, were added to 2% RBC suspension. Controls and tested samples were incubated at 37 °C. […] For each measurement, 0.5 mL samples were taken from incubated Eppendorf tubes and centrifuged (3000 rpm, 10 min). […] The percentage of hemolysis was calculated with the following formula:Hemolysis (%) = (Asample/Atotal hemolysis) × 100%(1) where Asample—absorbance of the test sample; Atotal hemolysis—the absorbance of the reference sample with 2% Triton X solution, corresponding to complete hemolysis.

[5] = system: HUVEC cells; assay: WST-1 viability under AAPH-induced oxidative stress, HUVEC; type: cell-based, human; details: AAPH 17.5 mmol/L, relative to pure medium control
Description: WST-1 assay (Takara, Takara Bio Europe, Saint-Germain-en-Laye, France) was used to assess the effects of antipsychotics on the growth of HUVEC and astrocytes. The experiments were conducted as described previously. HUVEC were seeded at a density of 7500 cells, and astrocytes at 5000 cells per well on 96-well microplates and cultured for 24 h followed by treatment with compounds at ½ × TPCmax and TPCmax or pure medium as a control (v = 100 μL) for another 24 h (37 °C, 5% CO2). Subsequently, the cells were washed with culture medium (100 μL) and WST-1 reagent diluted in medium (10 μL of reagent + 90 μL of medium) was added. The plates were incubated at 37 °C in 5% CO2 for another 90 min for HUVEC and 60 min for astrocytes. The absorbance was read at 450 nm using a microplate reader (iMARK, Bio-Rad, Hercules, CA, USA). The cells viability was expressed as a percentage of the control samples which constituted 100% viability.
Moreover, the WST-1 assay was used to evaluate potential protective effects of antipsychotics on the growth of HUVEC and astrocytes under conditions of AAPH-induced oxidative stress. The experimental conditions were the same as in viability studies. AA at the final concentration of 10 μg/mL was used as an antioxidant control. After reaching the confluence, the antipsychotics were added at concentrations equaling ½ × TPCmax and TPCmax. After 1 h incubation under standard conditions, 50 μL AAPH was added to the wells containing tested compounds or AA. The AAPH concentration was chosen on the basis of preliminary experiments—17.5 mmol/L in HUVEC experiments, and 15.0 mmol/L in the case of astrocytes.

[6] = biological target: T3, BuChE (Homo sapiens, UniProt P06276); assay: Synergism of antipsychotics with donepezil/rivastigmine (binary mixtures), BuChE; details: ComboSyn;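 also: combination index derived by median-effect analysis of combined drug effects on the cholinesterase, with values below 1 meaning synergism, exactly 1 additivity and above 1 antagonism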
T3 sequence (P06276 29-602): as above
Description: In turn, the concentrations of antipsychotics were constant in every measurement, and were chosen on the basis of estimated therapeutic plasma concentrations.
Automatic simulation of synergism and antagonism at all doses or effect levels is possible by computer software, based on algorithms. Calculation of the combination index (CI) and isobologram analyses enable to quantitatively determine drug interactions, where CI < 1, =1 and >1 indicate synergism, additive effect and antagonism, respectively. […] The software also allowed us to display the dose–effect curve, the median–effect plot and the dose-reduction index (DRI) plot [36].

[7] = biological target: T3, BuChE; assay: Kinetic parameters of enzymatic reaction (Hanes–Woolf), BuChE; type: biochemical; set-up: The solution of plasma 200-fold diluted with 0.9% NaCl; from tissue; host or cells: citrated plasma from blood of healthy human donors
Description: Kinetic parameters were obtained on the basis of three individual experiments carried out on different biological materials. For this purpose, various concentrations of substrates (ATC and BTC) were used in experiments. The type of inhibition and kinetic parameters of enzymatic reactions were obtained by linear regression using the Hanes–Woolf equations.
AChE SI (selectivity index) was calculated by using the following formula: SI = IC50 of BuChE/IC50 of AChE. However, BuChE SI was defined as IC50 of AChE/IC50 of BuChE. Maximal velocity (Vmax) and the Michaelis constant (Km) were calculated with the use of linear regression—according to the Hanes–Woolf plot.

OCCOCCN1CCN(C2=Nc3ccccc3Sc3ccccc32)CC1 [Quetiapine, quetiapine]
AChE reaction velocity ([1]; over 4000 µg/L (two ends of the printed span), control 0.264 ± 0.014 A/min): 0.257 ± 0.016 A/min and 0.241 ± 0.013 A/min | IC50 ([1]; theoretical values calculated on the basis of extrapolated plots): > 100 µM | IC50 [2]: 6.08 ± 1.63 µM | RBCs hemolysis with AAPH ([3]; 5 h, AAPH control 53.4%): 23.9% | RBCs hemolysis with AAPH ([3]; 24 h, AAPH control 45.9%): 51.9% | methemoglobin formation with AAPH ([4]; 80 μg/L): 17.1% | methemoglobin formation with AAPH ([4]; 400 μg/L): 18.8% | viability of HUVEC under AAPH ([5]; TPC (bromperidol 25 μg/L, quetiapine 400 μg/L)): 74.9% | viability of HUVEC under AAPH ([5]; ½ × TPC (bromperidol 12.5 μg/L, quetiapine 200 μg/L)): 66.8% | CI (combination index), BuChE ([6]; donepezil 2 μmol/L + antipsychotic at TPCmax): 0.64 | CI (combination index), BuChE ([6]; donepezil 5 μmol/L + antipsychotic at TPCmax): 0.64 | CI (combination index), BuChE ([6]; donepezil 10 μmol/L + antipsychotic at TPCmax): 0.71 | CI (combination index), BuChE ([6]; donepezil 20 μmol/L + antipsychotic at TPCmax): 0.75 | CI (combination index), BuChE ([6]; donepezil 50 μmol/L + antipsychotic at TPCmax): 0.85 | CI (combination index), BuChE ([6]; rivastigmine 0.05 μmol/L + antipsychotic at TPCmax): 2.24 | CI (combination index), BuChE ([6]; rivastigmine 0.1 μmol/L + antipsychotic at TPCmax): 1.42 | Vmax(i) BuChE ([7]; compound at its IC50): 0.138 ± 0.058 A/min | Vmax(i) BuChE ([7]; compound at ½ IC50): 0.239 ± 0.026 A/min | type of inhibition of BuChE ([7]; from Km(i), Vmax(i) vs Km, Vmax, mixed inhibition): same type of inhibition
